Reference: ChEMBL document CHEMBL1153169, “Structure-activity relationships of the ultrapotent vanilloid resiniferatoxin (RTX): The side chain benzylic methylene” (Bioorg Med Chem Lett, 2010)

molecular target: T1, Transient receptor potential cation channel subfamily V member 1 (Homo sapiens, UniProt Q8NER1); assay: Agonist activity at human TRPV1 expressed in HEK293 cells assessed as increase in intracellular calcium level; format: functional, cell-based
T1 sequence (Q8NER1 whole entry): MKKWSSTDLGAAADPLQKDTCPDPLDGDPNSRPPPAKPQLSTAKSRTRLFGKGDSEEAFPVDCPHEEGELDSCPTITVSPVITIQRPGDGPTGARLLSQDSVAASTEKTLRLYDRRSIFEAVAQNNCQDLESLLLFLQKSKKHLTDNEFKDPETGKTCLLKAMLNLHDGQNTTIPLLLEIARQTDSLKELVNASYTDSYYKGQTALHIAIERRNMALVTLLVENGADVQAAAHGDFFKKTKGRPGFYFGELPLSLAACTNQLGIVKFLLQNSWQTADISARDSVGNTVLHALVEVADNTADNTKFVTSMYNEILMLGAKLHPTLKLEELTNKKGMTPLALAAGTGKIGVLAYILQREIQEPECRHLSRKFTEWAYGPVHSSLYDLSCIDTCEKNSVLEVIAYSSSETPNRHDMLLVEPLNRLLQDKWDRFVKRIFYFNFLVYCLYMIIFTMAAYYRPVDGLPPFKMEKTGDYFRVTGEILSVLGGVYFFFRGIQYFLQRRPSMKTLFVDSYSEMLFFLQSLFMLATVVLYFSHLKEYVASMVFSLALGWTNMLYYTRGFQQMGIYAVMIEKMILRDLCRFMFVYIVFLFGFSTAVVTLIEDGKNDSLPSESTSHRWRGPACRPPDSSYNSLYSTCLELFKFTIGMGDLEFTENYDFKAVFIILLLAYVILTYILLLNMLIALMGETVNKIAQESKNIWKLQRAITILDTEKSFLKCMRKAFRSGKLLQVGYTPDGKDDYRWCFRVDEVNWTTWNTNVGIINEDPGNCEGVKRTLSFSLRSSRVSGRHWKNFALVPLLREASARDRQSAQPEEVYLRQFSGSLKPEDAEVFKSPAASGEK

Structure (SMILES) | EC50 [nM]
C=C(C)[C@]12C[C@@H](C)[C@@]34O[C@](Cc5ccccc5)(O[C@@H]1[C@@H]3C=C(COC(=O)C(OC)c1ccc(O)c(OC)c1)C[C@]1(O)C(=O)C(C)=C[C@@H]41)O2 (some centres undefined) | 17.4
C=C(C)[C@]12C[C@@H](C)[C@@]34O[C@](Cc5ccccc5)(O[C@@H]1[C@@H]3C=C(COC(=O)Oc1cc(I)c(O)c(OC)c1)C[C@]1(O)C(=O)C(C)=C[C@@H]41)O2 | 0.0047
C=C(C)[C@]12C[C@@H](C)[C@@]34O[C@](Cc5ccccc5)(O[C@@H]1[C@@H]3C=C(COC(=O)C(C)c1ccc(O)c(OC)c1)C[C@]1(O)C(=O)C(C)=C[C@@H]41)O2 (some centres undefined) | 0.98
C=C(C(=O)OCC1=C[C@H]2[C@H]3O[C@@]4(Cc5ccccc5)O[C@@]2([C@H](C)C[C@]3(C(=C)C)O4)[C@@H]2C=C(C)C(=O)[C@@]2(O)C1)c1ccc(O)c(OC)c1 | 0.15
C=C(C)[C@]12C[C@@H](C)[C@@]34O[C@](Cc5ccccc5)(O[C@@H]1[C@@H]3C=C(COC(=O)C(OC(C)=O)c1ccc(O)c(OC)c1)C[C@]1(O)C(=O)C(C)=C[C@@H]41)O2 (some centres undefined) | 0.65
C=C(C)[C@]12C[C@@H](C)[C@@]34O[C@](Cc5ccccc5)(O[C@@H]1[C@@H]3C=C(COC(=O)Oc1ccc(O)c(OC)c1)C[C@]1(O)C(=O)C(C)=C[C@@H]41)O2 | 13.7
C=C(C)[C@]12C[C@@H](C)[C@@]34O[C@](Cc5ccccc5)(O[C@@H]1[C@@H]3C=C(COC(=O)C(O)c1ccc(O)c(OC)c1)C[C@]1(O)C(=O)C(C)=C[C@@H]41)O2 (some centres undefined) | 19

molecular target: T1, Transient receptor potential cation channel subfamily V member 1; assay: Antagonist activity at human TRPV1 expressed in HEK293 cells assessed as inhibition of intracellular calcium level; format: functional, cell-based

Structure (SMILES) | IC50 [nM]
C=C(C)[C@]12C[C@@H](C)[C@@]34O[C@](Cc5ccccc5)(O[C@@H]1[C@@H]3C=C(COC(=O)Cc1cc(I)c(O)c(OC)c1)C[C@]1(O)C(=O)C(C)=C[C@@H]41)O2 [IODORESINIFERATOXIN] | 4000

molecular target: T1, Transient receptor potential cation channel subfamily V member 1; assay: Selectivity ratio of EC50 for drug to capsaicin for human TRPV1 expressed in HEK293 cells assessed as increase in intracellular calcium level; format: cell-based

Structure (SMILES) | Ratio EC50
C=C(C)[C@]12C[C@@H](C)[C@@]34O[C@](Cc5ccccc5)(O[C@@H]1[C@@H]3C=C(COC(=O)Oc1ccc(O)c(OC)c1)C[C@]1(O)C(=O)C(C)=C[C@@H]41)O2 | 3
